How the values were obtained:
Nrf2 [1] = experiment: ARE luciferase reporter assay (Nrf2 transcriptional activity) in HNDFs; format: cell-based, human; conditions: 6 h; for relative ARE luciferase activity, co-treated with HG: ANM 10 μM or NAC 100 μM + HG 30 mM, HG alone 2.5-fold; for relative ARE luciferase activity, compound alone: ANM 10 μM or NAC 100 μM, control 1-fold, HG 2.5-fold
Description: Therefore, to determine whether ANM augments Nrf2 transcriptional activity, ARE-harboring luciferase reporter assay is used. In FIG. 5E, to determine the Nrf2 transcriptional activity, HNDFs are transiently transfected with ARE promoter construct using lipofectamine and incubated with ANM (10 μM) or NAC (100 μM) in the presence or absence of HG (30 mM) for 6 h. Cell lysates are mixed with luciferase reagents and quantified using an illuminometer. Relative ARE promoter activity is calculated by dividing the relative luciferace unit (RLU) of treated cells by RLU of untreated cells (NG).
Activation of P13K/AKT and mitogen-activated protein kinases (MAPKs), including ERK1/2, JNK/SAPK and p38 MAPK, facilitates Nrf2 transcriptional activation in a variety of human cell lines. […] To elucidate the upstream signaling events involved in ANM-induced Nrf2 transcriptional activity, cells are pre-incubated with pharmacological inhibitors of P13K/AKT (LY294002), ERK1/2 (PD98059), SAPK/JNK (SP600125) and p38MAPK (SB203580) for 2 h and treated with ANM for 6 h in the presence of HG. In FIG. 5G, HNDFs are pre-incubated with AKT, ERK1/2, JNK/SAPK and p38 MAPK inhibitors, including LY294002 (LY, 30 μM), PD98059 (PD, 30 μM), SP600125 (SP, 30 μM) and SB203580 (SB, 30 μM), respectively, for 2 h and then incubated with ANM (10 μM) in the presence of HG (30 mM) for 6 h. Cytoplasmic and nuclear fractions are prepared and subjected to western blot analysis. GAPDH and histone H3 are served as internal controls for the cytoplasmic and nuclear fraction, respectively.
ARE promoter activity is measured using a dual-luciferase reporter assay system (Promega, Madison, Wis.). […] Cells are then transfected with ARE plasmid (Qiagen, Hilden, Germany) using Lipofectamine 2000 (Invitrogen) and incubated for 36 h. […] The cell lysate is prepared and incubated with luciferase agents and the relative luminescence intensity is quantified using a spectrophotometer (Hidex Oy, Turku, Finland).

Nrf2 [2] = experiment: Nrf2 nuclear localization by immunofluorescence in HNDFs; format: cell-based, human; conditions: ANM 10 μM or NAC 100 μM, 2 h
Description: Transcriptional activation of Nrf2 is dependent upon the rate of […] followed by disassociation from cytoplasmic Keap-1. In FIG. 5F, to determine the nuclear localization of Nrf2, HNDFs are incubated with ANM (10 μM) or NAC (100 μM) in the presence or absence or HG (30 mM) for 2 h. The protein expression and localization of Nrf2 are measured by immunofluorescence using Nrf2 specific primary antibody and fluorescein isothiocyanate-conjugated secondary antibody (green). The subcellular and nuclear localization of Nrf2 is photographed using a fluoroscence microscope. DAPI (1 μM) is used to stain the nucleus.
HNDFs at a density of 1×10^4 cells/well are cultured in an eight-well glass Nunc Lab-Tek chamber (ThermoFisher Scientific, Waltham, Mass.). Cells are treated with ANM or NAC in the presence or absence of HG for 2-72 h. After incubation, culture medium is removed and cells are fixed in 4% paraformaldehyde for 15 min, permeabilized with 0.1% Triton X-100 for 10 min, washed and blocked with 10% FBS in PBS, and then incubated overnight with the corresponding primary antibodies in 1.5% FBS. […] Next, the cells are stained with 1 μg/mL 4′,6-diamidino-2-phenylindole (DAPI, Cell Signaling Technology) for 5 min, washed with PBS, and visualized using a fluorescence microscope (Motic Electric Group) at 40× magnification.

Keap-1 = Keap-1 protein level and ubiquitination (western blot, immunoprecipitation) in HNDFs; format: cell-based, human; conditions: for ubiquitination of total protein: HNDFs treated with ANM or NAC
Description: Under normal physiological condition, Nrf2 is sequestered in the cytoplasm, where it associated with Keap-1, an actin-binding protein. Upon chemical treatment or oxidative stress conditions, the steady-state levels of Keap-1 is rapidly degraded through the ubiquitin-dependent proteasome pathway, which eventually causes Nrf2 accumulation and transcriptional activity. […] In FIG. 5H, the Keap-1 protein expression level is determined by western blotting.
In FIG. 5I, effect of ANM on ubiquitination of Keap-1 is examined. Equivalent amount of proteins are immune-precipitated with Keap-1 antibody and visualized by western blotting with ubiquitin antibody. […] Results are expressed as mean±S.E.M of three independent experiments. Statistical significance is set at ^ϕP<0.05 as compared to NG vs. HG or ANM alone or NAC alone and *P<0.05 as compared to HG vs. samples. […] Therefore, it is further examined whether AKT and ERK1/2 have any influence on Keap-1 ubiquitination. Cells are co-incubated with AKT, p38MAPK, JNK and ERK1/2 inhibitors in the presence of […]; and the Keap-1 ubiquitination is examined.
HNDFs are seeded at a density of 1×10^6 cells/dish in 10 cm dish and treated with ANM or pharmacological inhibitors of AKT, JNK/SAPK, p38 MAPK and ERK1/2 in the presence or absence of HG. After treatment, cells are lysed with RIPA buffer containing protease inhibitor cocktail. The lysates are homogenized and centrifuged at 16,000×g for 15 min at 4° C. The supernatant is collected and the protein concentration is determined by Bio-Rad protein assay reagent. Total protein extract containing 500 μg of proteins are precleared with protein-A agarose beads for 1 h and incubated with 3 μg of anti-Keap-1 antibody for overnight at 4° C. with gently shake. After overnight incubation, centrifuged at 2000×g for 5 min at 4° C., the supernatant is discarded and the reaming pellet is washed with RIPA buffer. Immunoprecipitated complexes are mixed with SDS sample buffer and denatured at 94° C. for 5 min. Equal amount of protein samples are subjected to western blotting. The ubiquitinated Keap-1 protein levels are determined by ubiquitin antibody.

[3] = Cell-free DPPH free-radical scavenging assay; format: biochemical; conditions: cell-free system
Description: Therefore, next to determine whether ANM acts directly as a free-radical scavenger, a cell-free DPPH free-radical scavenging assay is performed. In FIG. 5A, to determine the free-radical scavenging effect of ANM, cell-free DPPH assay is performed.

SMILES	relative ARE luciferase activity, co-treated with HG (Nrf2 [1])	relative ARE luciferase activity, compound alone (Nrf2 [1])	Nrf2 expression in the nucleus (Nrf2 [2])	ubiquitination of Keap-1, co-incubated with HG (Keap-1; ANM + HG)	Keap-1 protein level (Keap-1; ANM alone or in HG-induced condition)	ubiquitination of Keap-1 (Keap-1; ANM alone, immunoprecipitation with anti-Keap-1)	ubiquitination of total protein (Keap-1)	free-radical scavenging effect (DPPH) [3]
C=C(CCC(C)C1CCC2C3=C(C(=O)C(O)C21C)C1(C)CCC(O)C(C)C1CC3)C(C)C(=O)O (stereo not shown) [ANM, antcin M]	8.5 fold	5.8 fold	elevated Nrf2 expression in the nucleus	further increase	significantly decreased	remarkable increase	significant increase	fails to scavenge free radicals
CC(=O)N[C@@H](CS)C(=O)O [NAC, N-acetylcysteine, reference compound]	8.2 fold	6.3 fold	elevated Nrf2 expression in the nucleus	–	–	–	significant increase	potent free-radical scavenging effect

Source: patent publication US20180318199A1, “Pharmaceutical Composition Having Anti-Aging Properties against High-Glucose” (TAIWAN LEADER BIOTECH CORP., priority 2017, published 2018)
